{"source": "patent US4938897A", "about": "(Kureha Kagaku Kogyo Kabushiki Kaisha, priority 1985, dated 1990)", "key": {"3T3 cells": {"tested_on": "3T3 cells", "assay": "Suppression of proliferation of mouse fibroblasts (3T3), Trypan blue living cell count", "type": "cell-based", "settings": "5 μg/ml", "experimental": "(§1) The activity of one of the present substances, 3-dansyloxyestradiol-17β-[[4-[p-{bis(2-chloroethyl)amino}phenyl]butyryloxy]]acetate in suppressing the proliferation of (1) the fibroblasts of mouse (3T3) and (2) transformed fibroblasts of mouse by SV-40 virus (3T3 SV-40) was studied by in vitro tests as follows:\n(§2) Into a culture medium consisting of 90% by weight of DALBECCO MEM and 10% of bovine foetus serum, a solution of the test substance in dimethylsulfoxide at a rate of 5 μg/ml was added (dimethylsulfoxide being 1% of the culture medium). After adjusting the pH of the three culture media respectively to 6.5, 7.0 and 7.8, the target cells were implanted into each culture medium at a rate of 2×10^4 cells/ml, and the culture media were incubated at 37° C. in an atmosphere of 5% of carbon dioxide for 3 and 6 days. After ending the incubation, the number of living cells which were not dyed with Trypan blue enumerated in the cultured medium to calculate the rate of suppression of the proliferation of the fibroblasts as follows: [formula] where Nc is the number of the living fibroblasts in control group and Nt is the number of living fibroblasts in the test group both in the unit area.\n(§3) The activity of one of the present substance, 3-dansyloxyestradiol-17β-[[2-[p-{bis(2-chloroethyl)amino}phenyl]acetoxy]]acetate in suppressing the proliferation of mouse fibroblasts (3T3) and SV-40 virus-transformed fibroblasts (3T3 SV-40) was examined by the same method as in Example 4 except for (1) the days of incubation of 3 and 5 days instead of 3 and 6 days in Example 4 and (2) the pH of the culture medium of 6.7 instead of 6.7, 7.0 and 7.8 in Example 4."}, "[1]": {"tested_on": "3T3 SV-40 cells vs 3T3 cells", "assay": "Intaking of test substance by 3T3 SV-40 cells compared to 3T3 cells, fluorescence microscope", "type": "cell-based, mouse", "experimental": "Intaking of one of the present substances, 3-dansyloxyestradiol-17β-[[4-[p-{bis(2-chloroethyl)amino}phenyl]butyryloxy]]acetate, by mouse fibroblasts (3T3) and mouse transformed fibroblasts by SV-40 virus (3T3 SV-40) was examined with a fluorescence microscope under the following conditions:\nConcentration of the test substance: 10 and 50 μg/ml\npH of culture medium: 6.5 and 7.8\nNumber of implanted cells: 2×10^4 cells/ml\nTemperature and days of incubation: 37° C. for 5 days\nFixation: by aqueous 2.5% glutaraldehyde phosphate buffer for 90 minutes\nExamination: by using a microscope (made by Olympus, BHS-RFK) with an exciting filter UGI and auxiliary absorption filter Y-475.\nIn the similar manner to that in Example 6, intaking of one of the present substances, 3-dansyloxyestradiol-17β-[[2-[p-{bis(2-chloroethyl)amino}phenyl]acetoxy]]acetate by mouse fibroblast (3T3) and mouse transformed fibroblast by SV-40 virus (3T3 SV-40) was studied."}, "3T3 SV-40 cells": {"tested_on": "3T3 SV-40 cells", "assay": "Suppression of proliferation of mouse fibroblasts transformed by SV-40 virus (3T3 SV-40), Trypan blue living cell count", "type": "cell-based", "settings": "for Rate of suppression (%): 3T3 SV-40 cells, 5 μg/ml", "experimental": "as §1, §2, §3"}, "[2]": {"assay": "Fluorescent determination (emission wave length)", "type": "physicochemical", "settings": "for emitted light wave length: ethyl acetate", "excerpt": "As a result of fluorescent determination at a wave length of excitation light of 356 nm, the emitted light of 520 nm in wave length with ethyl acetate was observed.\nAs a result of fluorescent determination at a wave length of excitation light of 357 nm, the emitted light of 525 nm in wave length of this substance with ethyl acetate was observed.\nOnto a chromatographic column prepared by filling 400 g of silica gel (made by Merck Co. under the name of Art 7734) into a glass tube of 36 mm in inner diameter and 865 mm in length by using chloroform, a solution of 12 g of the crude product dissolved in 50 ml of chloroform was charged, and the absorbed product was subjected to elution by a flow of chloroform at a flow rate of 7 ml/min, thereby 1400 ml of a fraction showing one spot on the chromatogram were obtained. By condensing the fraction, 9 g of wet product were obtained. The wet product was dissolved in 30 ml of chloroform, and after adding 50 ml of hexane to the prepared solution, the mixture was cooled while stirring thereof, however, since no crystal was precipitated therefrom, the solvent was distilled off therefrom by using an evaporator and the residue was dried under vacuum to obtain 7 g of a solid, fluorescent substance in a yield of 68.2%. […] Its emission fluorescence was 521 nm by the excitation light of 358 nm."}, "RC cell": {"tested_on": "RC cell", "assay": "Suppression of proliferation of human renal cancer cells (RC)", "type": "cell-based", "settings": "5 μg/ml, 37° C.; for Rate of suppression (%): RC cell", "experimental": "as §2\n(§4) The activity of one of the present substance, 3-dansyloxyestradiol-17β-[[4-[p-{bis(2-chloroethyl)amino}phenyl]butyryloxy]]acetate, in suppressing the proliferation of (1) human nomal renal cells (FLOW 4000) and (2) human renal cancer cells (RC) was examined as follows:\n(§5) Into the same culture medium as in Example 4, a solution of the test substance dissolved in dimethylsulfoxide was added at a rate of 5 μg/ml (dimethylsulfoxide being 1% of the culture medium), and after adjusting the three culture media respectively to pH of 6.5, 7.0 and 7.8, the cells were implanted into each culture medium at a rate of 2×10^4 cells/ml, and the culture media implanted were incubated for 6 days at 37° C. in an atmosphere of 5% of carbon dioxide. The rate of suppression of the proliferation of the implanted cells was calculated by the same formula as in Example 4, the results being shown in Table 2."}, "FLOW 4000 cell": {"tested_on": "FLOW 4000 cell", "assay": "Suppression of proliferation of human normal renal cells (FLOW 4000)", "type": "cell-based", "settings": "5 μg/ml, 37° C.", "experimental": "as §2, §4, §5"}, "[3]": {"tested_on": "human renal cancer cells (RC) vs normal human renal cells (FLOW 4000)", "assay": "Intaking of test substance by RC cells compared to FLOW 4000 cells, fluorescence microscope", "type": "cell-based", "settings": "Example 8; 37° and 40° C. incubation", "experimental": "In the similar manner to that in Example 7, intaking of one of the present substances, 3-dansyloxyestradiol-17β-[[4-[p-{bis(2-chloroethyl)amino}phenyl]butyryloxy]]acetate by the normal human renal cells (FLOW 4000) and the human renal cancer cells (RC) was examined by using the same fluorescence microscope as in Example 7. The incubation of the implanted cells was carried out at 37° and 40° C."}, "mouse": {"tested_on": "mouse", "settings": "for reference; cited from earlier work"}, "[4]": {"settings": "pH 6.7, 3 days, 37° C. (Example 6)"}, "[5]": {"settings": "pH 6.7, 5 days, 37° C. (Example 6)"}}, "data": [{"compound": "CN(C)c1cccc2c(S(=O)(=O)Oc3ccc4c(c3)CC[C@@H]3[C@@H]4CC[C@]4(C)[C@@H](OC(=O)COC(=O)Cc5ccc(N(CCCl)CCCl)cc5)CC[C@@H]34)cccc12", "note": "[3-Dansyloxyestradiol-17β-[[2-[p-{bis(2-chloroethyl)amino}phenyl]acetoxy]]acetate]", "values": [{"measurement": "Rate of suppression (%)", "setting": "3T3 cells; [4]", "value": 25.24, "unit": "%"}, {"measurement": "Rate of suppression (%)", "setting": "3T3 cells; [5]", "value": 53.28, "unit": "%"}, {"measurement": "Intaking of the test substance by 3T3 SV-40 compared to 3T3", "setting": "[1]; Example 9, FIG. 8: 5 μg/ml, pH 6.5, 4 days", "value": "remarkable as compared to that by 3T3"}, {"measurement": "Rate of suppression (%)", "setting": "3T3 SV-40 cells; [4]", "value": 55.72, "unit": "%"}, {"measurement": "Rate of suppression (%)", "setting": "3T3 SV-40 cells; [5]", "value": 85.86, "unit": "%"}]}, {"compound": "CN(C)c1cccc2c(S(=O)(=O)Oc3ccc4c(c3)CC[C@@H]3[C@@H]4CC[C@]4(C)[C@H](OC(=O)COC(=O)CCCc5ccc(N(CCCl)CCCl)cc5)CC[C@@H]34)cccc12", "note": "[3-dansyloxyestradiol-17α-[[4-[p-{bis(2-chloroethyl)amino}phenyl]butyryloxy]]acetate]", "values": [{"measurement": "emitted light wave length", "setting": "[2]; excitation light 357 nm", "value": 525, "unit": "nm"}]}, {"compound": "CN(C)c1cccc2c(S(=O)(=O)Oc3ccc4c(c3)CC[C@@H]3[C@@H]4CC[C@]4(C)[C@@H](OC(=O)COC(=O)c5ccc(N(CCCl)CCCl)cc5)CC[C@@H]34)cccc12", "note": "[3-dansyloxyestradiol-17β-[[1-[p-{bis(2-chloroethyl)amino}phenyl]carbonyloxy]]acetate]", "values": [{"measurement": "emission fluorescence", "setting": "[2]; excitation light 358 nm", "value": 521, "unit": "nm"}]}, {"compound": "CN(C)c1cccc2c(S(=O)(=O)Oc3ccc4c(c3)CC[C@@H]3[C@@H]4CC[C@]4(C)[C@@H](OC(=O)COC(=O)CCCc5ccc(N(CCCl)CCCl)cc5)CC[C@@H]34)cccc12", "note": "[3-dansyloxyestradiol-17β-[[4-[p-{bis(2-chloroethyl)amino}phenyl]butyryloxy]]acetate]", "values": [{"measurement": "Rate of suppression (%)", "setting": "3T3 cells; pH 6.5, 3 days, 37° C.", "value": 16.8, "unit": "%"}, {"measurement": "Rate of suppression (%)", "setting": "3T3 cells; pH 6.5, 6 days, 37° C.", "value": 14.76, "unit": "%"}, {"measurement": "Rate of suppression (%)", "setting": "3T3 cells; pH 7.0, 3 days, 37° C.", "value": 6.45, "unit": "%"}, {"measurement": "Rate of suppression (%)", "setting": "3T3 cells; pH 7.0, 6 days, 37° C.", "value": 20.03, "unit": "%"}, {"measurement": "Rate of suppression (%)", "setting": "3T3 cells; pH 7.8, 3 days, 37° C.", "value": 7.87, "unit": "%"}, {"measurement": "Rate of suppression (%)", "setting": "3T3 cells; pH 7.8, 6 days, 37° C.", "value": 11.30, "unit": "%"}, {"measurement": "Intaking of the test substance by 3T3 SV-40 cells compared to 3T3 cells", "setting": "[1]; Example 7, 10 and 50 μg/ml, pH 6.5 and 7.8, 37° C., 5 days", "value": "remarkably recognized as compared to that by 3T3 cells"}, {"measurement": "suppression of the proliferation of human renal cancer cells (RC) (in words)", "setting": "RC cell; Example 5, 6 days", "value": "clearly suppressed the proliferation of the human renal cancer cells (RC)"}, {"measurement": "Rate of suppression (%)", "setting": "RC cell; pH 6.5, 6 days", "value": 54.54, "unit": "%"}, {"measurement": "Rate of suppression (%)", "setting": "RC cell; pH 7.0, 6 days", "value": 46.68, "unit": "%"}, {"measurement": "Rate of suppression (%)", "setting": "RC cell; pH 7.8, 6 days", "value": 22.39, "unit": "%"}, {"measurement": "Rate of suppression (%)", "setting": "3T3 SV-40 cells; pH 6.5, 3 days, 37° C.", "value": 64.19, "unit": "%"}, {"measurement": "Rate of suppression (%)", "setting": "3T3 SV-40 cells; pH 6.5, 6 days, 37° C.", "value": 91.60, "unit": "%"}, {"measurement": "Rate of suppression (%)", "setting": "3T3 SV-40 cells; pH 7.0, 3 days, 37° C.", "value": 55.80, "unit": "%"}, {"measurement": "Rate of suppression (%)", "setting": "3T3 SV-40 cells; pH 7.0, 6 days, 37° C.", "value": 85.88, "unit": "%"}, {"measurement": "Rate of suppression (%)", "setting": "3T3 SV-40 cells; pH 7.8, 3 days, 37° C.", "value": 31.60, "unit": "%"}, {"measurement": "Rate of suppression (%)", "setting": "3T3 SV-40 cells; pH 7.8, 6 days, 37° C.", "value": 38.80, "unit": "%"}, {"measurement": "activity of suppressing the proliferation of transformed cells by SV-40 virus (in words)", "setting": "3T3 SV-40 cells; Example 4, pH range of from 6.5 to 7.8, 5 μg/ml", "value": "clearly showed an activity of suppressing the proliferation of transformed cells by SV-40 virus"}, {"measurement": "Rate of suppression (%)", "setting": "FLOW 4000 cell; pH 6.5, 6 days", "value": 27.83, "unit": "%"}, {"measurement": "Rate of suppression (%)", "setting": "FLOW 4000 cell; pH 7.0, 6 days", "value": 14.00, "unit": "%"}, {"measurement": "Rate of suppression (%)", "setting": "FLOW 4000 cell; pH 7.8, 6 days", "value": -1.10, "unit": "%"}, {"measurement": "emitted light wave length", "setting": "[2]; excitation light 356 nm", "value": 520, "unit": "nm"}, {"measurement": "Intaking of the test substance by RC cells compared to FLOW 4000 cells", "setting": "[3]", "value": "remarkable as compared to that by the normal human cells (FLOW 4000) at both 37° and 40 °C"}]}, {"compound": "O=C(O)CCCc1ccc(N(CCCl)CCCl)cc1", "note": "[chlorambucil]", "values": [{"measurement": "LD50", "setting": "mouse", "value": 20, "unit": "mg/kg body weight"}]}]}
